Earlier results as cited in patent US9075045B2, “Cell-based detection of APF through its interaction with CKAP4 for diagnosis of interstitial cystitis” (THE COMMONWEALTH MEDICAL COLLEGE, priority 2008, dated 2015).
Read-outs that look alike come from different tables or passages of the source.

C[S+](C)[O-] [dimethyl sulfoxide]
effect on IC symptoms (bladder instillation every week or two for 6 to 8 weeks): improve symptoms temporarily

Bacillus Calmette-Guerin
effect on IC symptoms (intravesicular agent): improve symptoms

Pentosan polysulfate sodium
improved symptoms in % of patients (given orally (100 mg three times a day)): 30%
